Common to all, as to format: cell-based
For test [1], the system named is HEK293 clonal cell line overexpressing APOL1 G1. Briefly: APOL1 G1 HEK293 cell rescue assay (Example B3). To be noted: geometric mean of at least 2 runs, † = single run, ¥ = concentration at 50% rescue estimated (no sigmoidal curve). Put shortly:
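Rescue of cell death caused by APOL1 G1 overexpression was measured in a clonal HEK293 line. Compounds were tested in duplicate on one plate, and EC50s were geometric means across at least two runs on different days. Some values are estimated 50%-rescue concentrations where curve fitting failed.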

Test [2] relates to Trypanosoma brucei Lister 427 VSG221 with APOL1 G0 recombinant protein. Briefly: APOL1 G0 trypanosome cell rescue assay (Example B5). To be noted: geometric mean of at least 2 assay runs, † = single assay run. Put shortly:
(§1)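 Viability read by CellTiter-Glo luminescence after 20 h co-incubation (37° C, 5% CO2) of 250 trypanosomes/well in modified HMI-9 with test compound (duplicate 11-point, 2-fold dilutions, 0.4% DMSO) and APOL1 protein, […]. Protein: mature residues 28-398, E. coli inclusion-body refolded, tag cleaved, in DDM.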

For test [3], the system named is Trypanosoma brucei Lister 427 VSG221 with APOL1 G1 recombinant protein. Briefly: APOL1 G1 trypanosome cell rescue assay (Example B5). To be noted: geometric mean of at least 2 assay runs, † = single assay run. In outline: as §1
Test [4] has as its system Trypanosoma brucei Lister 427 VSG221 with APOL1 G2 recombinant protein. The test is described as follows: APOL1 G2 trypanosome cell rescue assay (Example B5). The following applies: geometric mean of at least 2 assay runs, † = single assay run. Put shortly:
as §1

The mark [5] stands for this setting: Homo sapiens, HEK293, HEK293 clonal line overexpressing APOL1 G1.
Where [6] appears, read: Trypanosoma brucei, 20 h, read-out: APOL1 G0 Trypanosome Rescue EC50, Trypanosoma brucei Lister 427 VSG221 with APOL1 G0 recombinant protein, 20 hours, CellTiter-Glo.
Where [7] appears, read: Trypanosoma brucei, 20 h, read-out: APOL1 G1 Trypanosome Rescue EC50, Trypanosoma brucei Lister 427 VSG221 with APOL1 G1 recombinant protein, 20 hours, CellTiter-Glo.
Setting [8] is: Trypanosoma brucei, 20 h, read-out: APOL1 G2 Trypanosome Rescue EC50, Trypanosoma brucei Lister 427 VSG221 with APOL1 G2 recombinant protein, 20 hours, CellTiter-Glo.
[9] abbreviates: read-out: APOL1 G0 Trypanosome Rescue EC50, Trypanosoma brucei Lister 427 VSG221 with APOL1 G0 recombinant protein, 20 hours, CellTiter-Glo.
Setting [10] is: read-out: APOL1 G1 Trypanosome Rescue EC50, Trypanosoma brucei Lister 427 VSG221 with APOL1 G1 recombinant protein, 20 hours, CellTiter-Glo.
[11] abbreviates: HEK293 clonal line overexpressing APOL1 G1.
Setting [12] is: read-out: APOL1 G2 Trypanosome Rescue EC50, Trypanosoma brucei Lister 427 VSG221 with APOL1 G2 recombinant protein, 20 hours, CellTiter-Glo.

pEC50: −log10 of the molar value. Where two headings read alike, the source gives them in different places. Some results are limits rather than exact numbers.

This passage reports EC50 results from US12344610B2, “APOL1 inhibitors and methods of use” (Maze Therapeutics, Inc., priority 2022, dated 2025).

A word on the pEC50: it is the EC50 on a negative log10 scale, so that one unit is a factor of ten.

With `C[C@@H](COc1ccc(S(C)(=O)=O)cc1)N1CCC2(CC1)C(=O)Nc1ccc(Cl)cc12` (single isomer, unassigned) [Compound 10], the pEC50 in test [1] (setting [5]) is 6.35; in test [2] (setting [6]) it was 6.45; in test [3] (setting [7]), 6.45; in test [4] (setting [8]), 7.03.

Turning to `C[C@@H](COc1ccc(S(C)(=O)=O)cc1)N1CCC2(CC1)C(=O)Nc1ccccc12` (single isomer, unassigned) [Compound 12], the pEC50 was 5.94 in test [1] (setting [5]), 5.71 in test [2] (setting [6]), 5.71 in test [3] (setting [7]) and 6.31 in test [4] (setting [8]).

`C[C@@H](CN1CCC2(CC1)C(=O)Nc1ccccc12)Oc1ccc(S(C)(=O)=O)cc1` (single isomer, unassigned) [Compound 13]: the pEC50 is under 4.52 in test [1] (setting [5]), under 5.40 in test [2] (setting [6]), under 5.40 in test [3] (setting [7]) and under 5.40 in test [4] (setting [8]).

On to `O=C1NCC2c3ccc(OCCN4CCC5(CC4)C(=O)Nc4ccc(Cl)cc45)cc3CCN12` (single isomer, unassigned) [Compound 116, (S) or (R)-5-chloro-1′-[2-({3-oxo-1H,2H,3H,5H,6H,10bH-imidazo[4,3-a]isoquinolin-8-yl}oxy)ethyl]-1,2-dihydrospiro[indole-3,4′-piperidin]-2-one], for which the pEC50 in test [1] (setting [5]) is 6.63; in test [2] (setting [9]) it was 6.83; in test [3] (setting [10]), 6.68; in test [4] (setting [8]), 7.16.

As to `O=C1NCC2c3ccc(OCCN4CCC5(CC4)C(=O)Nc4ccc(Cl)cc45)cc3CCN12` (single isomer, unassigned) [Compound 117, (R) or (S)-5-chloro-1′-[2-({3-oxo-1H,2H,3H,5H,6H,10bH-imidazo[4,3-a]isoquinolin-8-yl}oxy)ethyl]-1,2-dihydrospiro[indole-3,4′-piperidin]-2-one], the pEC50 in test [1] (setting [11]) is 6.76; in test [2] (setting [9]), 6.51; in test [3] (setting [10]) it was 6.37; in test [4] (setting [12]) it was 6.93.

`N#Cc1ccc2c(c1)C1(CCN(CCOc3ccc4c(c3)CCN3C(=O)NCC43)CC1)C(=O)N2` (single isomer, unassigned) [Compound 120, (R) or (S)-2-oxo-1′-[2-({3-oxo-1H,2H,3H,5H,6H,10bH-imidazo[4,3-a]isoquinolin-8-yl}oxy)ethyl]-1,2-dihydrospiro[indole-3,4′-piperidine]-5-carbonitrile]: the pEC50 in test [1] (setting [11]) was under 5.28; in test [2] (setting [6]), 6.09; in test [3] (setting [7]), 5.90; in test [4] (setting [8]), 6.46.

For `O=C1CCC2c3ccc(OCCN4CCC5(CC4)C(=O)Nc4ccc(Cl)cc45)cc3CCN12` (single isomer, unassigned) [Compound 122, (S) or (R)-5-chloro-1′-[2-({3-oxo-1H,2H,3H,5H,6H,10bH-pyrrolo[2,1-a]isoquinolin-8-yl}oxy)ethyl]-1,2-dihydrospiro[indole-3,4′-piperidin]-2-one], the pEC50 in test [1] (setting [5]) is 6.73; in test [2] (setting [6]), 6.60; in test [3] (setting [7]), 6.47; in test [4] (setting [8]) it was 6.97.

Regarding `O=C1CCC2c3ccc(OCCN4CCC5(CC4)C(=O)Nc4ccc(Cl)cc45)cc3CCN12` (single isomer, unassigned) [Compound 123, (R) or (S)-5-chloro-1′-[2-({3-oxo-1H,2H,3H,5H,6H,10bH-pyrrolo[2,1-a]isoquinolin-8-yl}oxy)ethyl]-1,2-dihydrospiro[indole-3,4′-piperidin]-2-one], the pEC50 in test [1] (setting [11]) is 6.63; in test [2] (setting [9]), 6.75; in test [3] (setting [10]) it was 6.59; in test [4] (setting [12]) it was 7.11.

Consider `CC(c1ccc(OCCN2CCC3(CC2)C(=O)Nc2ccc(C#N)cc23)cc1)S(C)(=O)=O` (single isomer, unassigned) [Compound 134, (S) or (R)-1′-{2-[4-(1-methanesulfonylethyl)phenoxy]ethyl}-2-oxo-1,2-dihydrospiro[indole-3,4′-piperidine]-5-carbonitrile], for which the pEC50 in test [1] (setting [5]) was 6.00; in test [2] (setting [6]), 6.07; in test [3] (setting [7]), 6.00; in test [4] (setting [8]), 6.56.
